Measured values published in patent US20240360178A1, “MACROCYCLIC IMMUNOMODULATORS” (Bristol-Myers Squibb Company, priority 2021, published 2024).
Positions of bridges follow the written chain, without caps; N, C: chain ends. Non-standard residues stand in square brackets, D forms with d. Residues, ends and D or L forms follow the SMILES beside them. ξ: configuration not given here. Phe(4-COOH) = N[C@@H](Cc1ccc(C(=O)O)cc1)C(=O)O; Phe(4-CH2NH2) = NCc1ccc(C[C@H](N)C(=O)O)cc1; Bip = N[C@@H](Cc1ccc(-c2ccccc2)cc1)C(=O)O; NMeY = CN[C@@H](Cc1ccc(O)cc1)C(=O)O; NMeF = CN[C@@H](Cc1ccccc1)C(=O)O; hArg = N=C(N)NCCCC[C@H](N)C(=O)O; Cit = NC(=O)NCCC[C@H](N)C(=O)O; NMeL = CN[C@@H](CC(C)C)C(=O)O; NMeA = CN[C@@H](C)C(=O)O; Orn = NCCC[C@H](N)C(=O)O; Dab = NCC[C@H](N)C(=O)O; ξP = O=C(O)C1CCCN1

Target: T1, human PD-1 (Jurkat-PD-1 cells) / PE-labeled human PD-L1-Ig (Homo sapiens, UniProt Q15116)
T1 construct: expressed in transfected cells; host or cells: Jurkat cell line over-expressing human PD-1
Assay: Jurkat-PD-1 Cell Binding High-Content Screening Assay (CBA); Jurkat hPD1-PDL1 assay
Conditions: Jurkat cell line over-expressing human PD-1; PE-labeled PD-L1-Ig 20 nM final; compound incubated 2 hours at 37° C.; read-out: Jurkat HPD1-PDL1 IC50
Procedure, shortened: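 Jurkat cells overexpressing human PD-1 (8×10^3 per well, DMEM with 10% FCS) were preincubated with compound for 2 hours at 37° C. PE-labeled human PD-L1-Ig was then added at 20 nM final. Binding was quantified by high-content imaging.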

T1 sequence (Q15116 25-288): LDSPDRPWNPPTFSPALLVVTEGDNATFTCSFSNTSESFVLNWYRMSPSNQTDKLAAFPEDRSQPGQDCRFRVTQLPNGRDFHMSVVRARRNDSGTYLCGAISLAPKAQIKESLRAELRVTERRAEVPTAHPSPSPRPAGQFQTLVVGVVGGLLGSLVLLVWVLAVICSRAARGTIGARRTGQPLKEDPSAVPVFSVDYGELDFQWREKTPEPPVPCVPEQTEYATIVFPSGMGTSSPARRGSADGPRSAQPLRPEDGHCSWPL

| IC50 [nM] | Compound |
| --- | --- |
| 840 | CC(C)C[C@@H]1NC(=O)[C@H](CCCNC(=N)N)NC(=O)[C@H](Cc2ccccc2)N(C)C(=O)[C@H](CCCNC(N)=O)NC(=O)[C@H](CCCNC(=N)N)NC(=O)[C@H](Cc2ccc(-c3ccccc3)cc2)NC(=O)[C@H](C(C)C)NC(=O)[C@H](Cc2c[nH]c3ccccc23)NC(=O)[C@H](CC(=O)O)NC(=O)[C@H](Cc2ccc(O)cc2)NC(=O)[C@H](Cc2ccccc2)NC(=O)CSC[C@@H](C(=O)NCC(N)=O)NC(=O)[C@H](CO)NC(=O)[C@H](C(C)C)NC1=O [Example 1276] ({CH2CO}-FYDWV[Bip]R[Cit][NMeF]RLVSCG-NH2; thioether N-14) |
| 140 | CC(C)C[C@@H]1NC(=O)[C@H](CCCNC(=N)N)NC(=O)[C@H](Cc2ccccc2)N(C)C(=O)[C@H](C)N(C)C(=O)[C@H](CCCNC(=N)N)NC(=O)[C@H](Cc2ccc(-c3ccccc3)cc2)NC(=O)[C@H](C(C)C)NC(=O)[C@H](Cc2c[nH]c3ccccc23)NC(=O)[C@H](CC(=O)O)NC(=O)[C@H](Cc2ccc(CN)cc2)NC(=O)[C@H](Cc2ccccc2)NC(=O)CSC[C@@H](C(=O)NCC(N)=O)NC(=O)[C@H](CO)NC(=O)[C@H](C(C)C)NC1=O [Example 1277] ({CH2CO}-F[Phe(4-CH2NH2)]DWV[Bip]R[NMeA][NMeF]RLVSCG-NH2; thioether N-14) |
| 310 | CC(C)C[C@@H]1NC(=O)[C@H](CCCN)NC(=O)[C@H](Cc2ccccc2)N(C)C(=O)[C@H](C)N(C)C(=O)[C@H](CCCNC(=N)N)NC(=O)[C@H](Cc2ccc(-c3ccccc3)cc2)NC(=O)[C@H](C(C)C)NC(=O)[C@H](Cc2c[nH]c3ccccc23)NC(=O)[C@H](CC(=O)O)NC(=O)[C@H](Cc2ccc(O)cc2)NC(=O)[C@H](Cc2ccccc2)NC(=O)CSC[C@@H](C(=O)NCC(N)=O)NC(=O)[C@H](CO)NC(=O)[C@H](C(C)C)NC1=O [Example 1278] ({CH2CO}-FYDWV[Bip]R[NMeA][NMeF][Orn]LVSCG-NH2; thioether N-14) |
| 320 | CC(C)C[C@@H]1NC(=O)[C@H](CCCCNC(=N)N)NC(=O)[C@H](Cc2ccccc2)N(C)C(=O)[C@H](C)N(C)C(=O)[C@H](CCCNC(=N)N)NC(=O)[C@H](Cc2ccc(-c3ccccc3)cc2)NC(=O)[C@H](C(C)C)NC(=O)[C@H](Cc2c[nH]c3ccccc23)NC(=O)[C@H](CC(=O)O)NC(=O)[C@H](Cc2ccc(O)cc2)NC(=O)[C@H](Cc2ccccc2)NC(=O)CSC[C@@H](C(=O)NCC(N)=O)NC(=O)[C@H](CO)NC(=O)[C@H](C(C)C)NC1=O [Example 1279] ({CH2CO}-FYDWV[Bip]R[NMeA][NMeF][hArg]LVSCG-NH2; thioether N-14) |
| 500 | CC(C)C[C@@H]1NC(=O)[C@H](CCCNC(=N)N)NC(=O)[C@H](Cc2ccc(O)cc2)N(C)C(=O)[C@H](C)N(C)C(=O)[C@H](CCCNC(=N)N)NC(=O)[C@H](Cc2ccc(-c3ccccc3)cc2)NC(=O)[C@H](C(C)C)NC(=O)[C@H](Cc2c[nH]c3ccccc23)NC(=O)[C@H](CC(=O)O)NC(=O)[C@H](Cc2ccc(O)cc2)NC(=O)[C@H](Cc2ccccc2)NC(=O)CSC[C@@H](C(=O)NCC(N)=O)NC(=O)[C@H](CO)NC(=O)[C@H](C(C)C)NC1=O [Example 1280] ({CH2CO}-FYDWV[Bip]R[NMeA][NMeY]RLVSCG-NH2; thioether N-14) |
| 460 | CC(C)C[C@@H]1NC(=O)[C@H](CCCNC(=N)N)NC(=O)[C@H](CC(C)C)N(C)C(=O)[C@H](C)N(C)C(=O)[C@H](CCCNC(=N)N)NC(=O)[C@H](Cc2ccc(-c3ccccc3)cc2)NC(=O)[C@H](C(C)C)NC(=O)[C@H](Cc2c[nH]c3ccccc23)NC(=O)[C@H](CC(=O)O)NC(=O)[C@H](Cc2ccc(O)cc2)NC(=O)[C@H](Cc2ccccc2)NC(=O)CSC[C@@H](C(=O)NCC(N)=O)NC(=O)[C@H](CO)NC(=O)[C@H](C(C)C)NC1=O [Example 1281] ({CH2CO}-FYDWV[Bip]R[NMeA][NMeL]RLVSCG-NH2; thioether N-14) |
| 290 | CC(C)C[C@@H]1NC(=O)[C@H](CCCNC(=N)N)NC(=O)C2CCCN2C(=O)[C@H](C)N(C)C(=O)[C@H](CCCNC(=N)N)NC(=O)[C@H](Cc2ccc(-c3ccccc3)cc2)NC(=O)[C@H](C(C)C)NC(=O)[C@H](Cc2c[nH]c3ccccc23)NC(=O)[C@H](CC(=O)O)NC(=O)[C@H](Cc2ccc(O)cc2)NC(=O)[C@H](Cc2ccccc2)NC(=O)CSC[C@@H](C(=O)NCC(N)=O)NC(=O)[C@H](CO)NC(=O)[C@H](C(C)C)NC1=O (stereo partly shown) [Example 1282] ({CH2CO}-FYDWV[Bip]R[NMeA][ξP]RLVSCG-NH2; thioether N-14) |
| 700 | CC(C)C[C@@H]1NC(=O)[C@H](CCCNC(=N)N)NC(=O)[C@H](Cc2ccccc2)N(C)C(=O)[C@H](C)N(C)C(=O)[C@H](CCCNC(=N)N)NC(=O)[C@H](Cc2ccc(-c3ccccc3)cc2)NC(=O)[C@H]([C@@H](C)O)NC(=O)[C@H](Cc2c[nH]c3ccccc23)NC(=O)[C@H](CC(=O)O)NC(=O)[C@H](Cc2ccc(O)cc2)NC(=O)[C@H](Cc2ccccc2)NC(=O)CSC[C@@H](C(=O)NCC(N)=O)NC(=O)[C@H](CO)NC(=O)[C@H](C(C)C)NC1=O [Example 1283] ({CH2CO}-FYDWT[Bip]R[NMeA][NMeF]RLVSCG-NH2; thioether N-14) |
| 820 | CC[C@H](C)[C@@H]1NC(=O)[C@H](Cc2c[nH]c3ccccc23)NC(=O)[C@H](CC(=O)O)NC(=O)[C@H](Cc2ccc(O)cc2)NC(=O)[C@H](Cc2ccccc2)NC(=O)CSC[C@@H](C(=O)NCC(N)=O)NC(=O)[C@H](CO)NC(=O)[C@H](C(C)C)NC(=O)[C@H](CC(C)C)NC(=O)[C@H](CCCNC(=N)N)NC(=O)[C@H](Cc2ccccc2)N(C)C(=O)[C@H](C)N(C)C(=O)[C@H](CCCNC(=N)N)NC(=O)[C@H](Cc2ccc(-c3ccccc3)cc2)NC1=O [Example 1284] ({CH2CO}-FYDWI[Bip]R[NMeA][NMeF]RLVSCG-NH2; thioether N-14) |
| 750 | CC(C)C[C@@H]1NC(=O)[C@H](CCCNC(=N)N)NC(=O)[C@H](Cc2ccccc2)N(C)C(=O)[C@H](C)N(C)C(=O)[C@H](CCC(=O)O)NC(=O)[C@H](Cc2ccc(-c3ccccc3)cc2)NC(=O)[C@H](C(C)C)NC(=O)[C@H](Cc2c[nH]c3ccccc23)NC(=O)[C@H](CC(=O)O)NC(=O)[C@H](Cc2ccc(O)cc2)NC(=O)[C@H](CCC(N)=O)NC(=O)CSC[C@@H](C(=O)NCC(N)=O)NC(=O)[C@H](CO)NC(=O)[C@H](C(C)C)NC1=O [Example 1286] ({CH2CO}-QYDWV[Bip]E[NMeA][NMeF]RLVSCG-NH2; thioether N-14) |
| 130 | CC(C)C[C@@H]1NC(=O)CSC[C@@H](C(=O)NCC(N)=O)NC(=O)[C@H](CO)NC(=O)[C@H](C(C)C)NC(=O)[C@H](CC(C)C)NC(=O)[C@H](CCCNC(=N)N)NC(=O)[C@H](Cc2ccccc2)N(C)C(=O)[C@H](C)N(C)C(=O)[C@H](CCC(=O)O)NC(=O)[C@H](Cc2ccc(-c3ccccc3)cc2)NC(=O)[C@H](C(C)C)NC(=O)[C@H](Cc2c[nH]c3ccccc23)NC(=O)[C@H](CC(=O)O)NC(=O)[C@H](Cc2ccc(O)cc2)NC1=O [Example 1287] ({CH2CO}-LYDWV[Bip]E[NMeA][NMeF]RLVSCG-NH2; thioether N-14) |
| 80 | CC(C)C[C@@H]1NC(=O)[C@H](CCCNC(=N)N)NC(=O)[C@H](Cc2ccccc2)N(C)C(=O)[C@H](C)N(C)C(=O)[C@H](CCC(=O)O)NC(=O)[C@H](Cc2ccc(-c3ccccc3)cc2)NC(=O)[C@H](C(C)C)NC(=O)[C@H](Cc2c[nH]c3ccccc23)NC(=O)[C@H](CC(=O)O)NC(=O)[C@H](Cc2ccc(O)cc2)NC(=O)[C@H](Cc2cnc[nH]2)NC(=O)CSC[C@@H](C(=O)NCC(N)=O)NC(=O)[C@H](CO)NC(=O)[C@H](C(C)C)NC1=O [Example 1288] ({CH2CO}-HYDWV[Bip]E[NMeA][NMeF]RLVSCG-NH2; thioether N-14) |
| 170 | CC(C)C[C@@H]1NC(=O)CSC[C@@H](C(=O)NCC(N)=O)NC(=O)[C@H](CO)NC(=O)[C@H](C(C)C)NC(=O)[C@H](CC(C)C)NC(=O)[C@H](CCN)NC(=O)[C@H](Cc2ccccc2)N(C)C(=O)[C@H](C)N(C)C(=O)[C@H](CCCNC(=N)N)NC(=O)[C@H](Cc2ccc(-c3ccccc3)cc2)NC(=O)[C@H](C(C)C)NC(=O)[C@H](Cc2c[nH]c3ccccc23)NC(=O)[C@H](CC(=O)O)NC(=O)[C@H](Cc2ccc(O)cc2)NC1=O [Example 1289] ({CH2CO}-LYDWV[Bip]R[NMeA][NMeF][Dab]LVSCG-NH2; thioether N-14) |
| 140 | CC(C)C[C@@H]1NC(=O)CSC[C@@H](C(=O)NCC(N)=O)NC(=O)[C@H](CO)NC(=O)[C@H](C(C)C)NC(=O)[C@H](CC(C)C)NC(=O)[C@H](CCCNC(=N)N)NC(=O)[C@H](Cc2ccccc2)N(C)C(=O)[C@H](C)N(C)C(=O)[C@H](CCCN)NC(=O)[C@H](Cc2ccc(-c3ccccc3)cc2)NC(=O)[C@H](C(C)C)NC(=O)[C@H](Cc2c[nH]c3ccccc23)NC(=O)[C@H](CC(=O)O)NC(=O)[C@H](Cc2ccc(O)cc2)NC1=O [Example 1290] ({CH2CO}-LYDWV[Bip][Orn][NMeA][NMeF]RLVSCG-NH2; thioether N-14) |
| 90 | CC(C)C[C@@H]1NC(=O)[C@H](CCCNC(=N)N)NC(=O)[C@H](Cc2ccccc2)N(C)C(=O)[C@H](C)N(C)C(=O)[C@H](CCCNC(=N)N)NC(=O)[C@H](Cc2ccc(-c3ccccc3)cc2)NC(=O)[C@H](C(C)C)NC(=O)[C@H](Cc2c[nH]c3ccccc23)NC(=O)[C@H](CC(=O)O)NC(=O)[C@H](Cc2ccc(C(=O)O)cc2)NC(=O)[C@H](Cc2cnc[nH]2)NC(=O)CSC[C@@H](C(=O)NCC(N)=O)NC(=O)[C@H](CO)NC(=O)[C@H](C(C)C)NC1=O [Example 1291] ({CH2CO}-H[Phe(4-COOH)]DWV[Bip]R[NMeA][NMeF]RLVSCG-NH2; thioether N-14) |
| 90 | CC(C)C[C@@H]1NC(=O)[C@H](CCCNC(=N)N)NC(=O)[C@H](Cc2ccccc2)N(C)C(=O)[C@H](C)N(C)C(=O)[C@H](CCCN)NC(=O)[C@H](Cc2ccc(-c3ccccc3)cc2)NC(=O)[C@H](C(C)C)NC(=O)[C@H](Cc2c[nH]c3ccccc23)NC(=O)[C@H](CC(=O)O)NC(=O)[C@H](Cc2ccc(O)cc2)NC(=O)[C@H](Cc2cnc[nH]2)NC(=O)CSC[C@@H](C(=O)NCC(N)=O)NC(=O)[C@H](CO)NC(=O)[C@H](C(C)C)NC1=O [Example 1292] ({CH2CO}-HYDWV[Bip][Orn][NMeA][NMeF]RLVSCG-NH2; thioether N-14) |
